# Legend:
# [1] = River sediment/water fate test (US FDA Guideline 3.11) with 14C-MPM; conditions: all systems and dosings
# Protocol: A river sediment/water fate test with two different ^14C-MPMs (one carboxyl-^14C-labelled, the other morpholine-^14C-labelled) was commissioned in 1994 by Syntex according to US FDA Guideline 3.11 in compliance with GLP (Yan 1995). Both carboxyl-^14C-labelled and morpholine-^14C-labelled MPM were tested separately for biodegradability in river water and sediment at dosing concentrations of 1 and 5 mg MPM/L, in parallel test set-ups in the dark at 21±1 °C over 64 days. Air was drawn in flow-through systems first through a 2 N KOH vessel to remove natural CO2, then through the test vessel and subsequently through two sequential 2 N KOH traps for ^14CO2 capture. Samples from the latter traps were taken for duplicate ^14CO2 analysis by LSC on days 1, 2, 3, 7, 14, 21, 28, 35, 49 and 64. Test medium samples for HPLC analysis were taken on days 0.01 (15 min after dosing), 1, 3, 7, 14, 21, 35, 49 and 64. Sediment samples were taken at the end for combustion and ^14CO2 analysis.
# [2] = OECD test guideline 301F ready biodegradability test
# [3] = tested on: humans; assay: Derivation of acceptable daily exposure (ADE); design: species or system human
# Protocol: Similarly, potential risk for humans from secondary poisoning is assessed by using the acceptable daily exposure (ADE) value for MPA (T. Pfister, unpublished data), which considers toxicological data as well as human experience and covers all routes of uptake, including sensitive subpopulations, over 365 d/annum, with the combined worst‐case uptake through drinking water and fish. No removal of MPA in drinking water production is assumed, but a default intake of 2 L water and 115 g fish/person and day is assumed (European Commission 2011; Murray‐Smith et al. 2012). This combined uptake is then compared with the ADE.
# The ADE was derived based on the available nonclinical and clinical data, with the critical effects identified as 1) immunosuppression and secondary effects thereof and 2) teratogenicity; in addition, the relevance of positive results in genotoxicity tests was assessed (T. Pfister, unpublished data). Based on the NOAEL of 2 mg/kg body weight/d in the 12‐mo oral toxicity study in the rat, an ADE was derived by multiplying this NOAEL by a default body weight of 60 kg for humans and dividing by adjustment factors, namely, 6.2 for extrapolation from rats to humans, 10 for variability between individuals, 1 for study duration of 1 yr for rodents, 5 for severity of systemic toxicity (hematopoiesis, immunotoxicity), and 3 for use of an established NOAEL instead of an NOEL; this derivation results in a first ADE of 0.1 mg MPM/60‐kg person/d. […] The weak clastogenic potential observed at higher doses was considered to be irrelevant at these exposure levels. Because the first ADE was lower than, and therefore also protective of, the second, 0.1 mg MPM/60‐kg person/d was selected as the ADE. Stoichiometrically, this ADE for MPM corresponds to 0.0739 mg MPA/d, which was rounded to 0.075 mg or 75 µg MPA/d. The MTDI for an otter was derived by normalizing the ADE for a 60‐kg human to the otter with a default body mass of 10 kg, resulting in an MTDI of 0.0125 mg or 12.5 µg MPA/10‐kg otter/d.
# [4] = design: method as in T. Pfister, unpublished data; conditions: ref T. Pfister, unpublished data, cited from earlier work
# [5] = tested on: mice; design: method as in T. Pfister, unpublished data; conditions: oral, 104 wk at 25, 75, or 180 mg/kg body weight/d, ref T. Pfister, unpublished data; cited from earlier work
# [6] = tested on: rats; design: method as in T. Pfister, unpublished data; conditions: at least 104 wk at 3, 7, or 15 mg/kg body weight/d, ref T. Pfister, unpublished data; cited from earlier work
# [7] = tested on: rats; design: method as in T. Pfister, unpublished data; conditions: oral, ref T. Pfister, unpublished data; cited from earlier work
# [8] = tested on: rabbits; design: method as in T. Pfister, unpublished data; conditions: oral, ref T. Pfister, unpublished data; cited from earlier work
# [9] = tested on: lymphocyte and erythrocyte systems; design: method as in T. Pfister, unpublished data; conditions: ref T. Pfister, unpublished data; cited from earlier work
# [10] = tested on: mice with large cell lymphoma; design: method as in T. Pfister, unpublished data; conditions: ref T. Pfister, unpublished data; cited from earlier work
# [11] = design: method as in Lee et al. 1990; Shipkova et al. 2005; conditions: in the liver and intestine; ref Lee et al. 1990; Shipkova et al. 2005; cited from earlier work
# [12] = tested on: rat; conditions: in vivo, po; cited from earlier work
# [13] = tested on: rats; conditions: cited from earlier work
# [14] = OECD test guideline 314B activated sludge biodegradation simulation test
# Excerpt: Mineralization comprises evolved CO2 (detected in the traps) as well as CO2 dissolved in the sludge. The latter was highest at day 2 and decreased afterward, whereas the amount of evolved CO2 increased continuously until the end of the study. […] At no time point was a noteworthy amount of radioactivity (>2% iRR throughout the test period) detected in the liquor after extraction. Radioactivity in the solids extract was highest at day 0 (5.5% iRR) and decreased afterward to 0.3% iRR after 28 d.
# Based on this k biodeg and physicochemical properties for MPA, SimpleTreat 4.0 (Struijs 2015) calculated a removal of 12% in STPs, mostly through biodegradation (0.27% in the primary settler and 11.5% in the aeration tank), with a small fraction of 0.13% adsorbed to sludge, in agreement with the OECD test guideline106 (Organisation for Economic Co‐operation and Development 2000) adsorption results mentioned in the previous paragraph (V. Halász‐Laky, unpublished data). […] A high degradation rate is supported by data from Franquet‐Griell et al. (2017b), who measured STP influents and effluents and compared solid phase extraction and macroporous ceramic passive samplers in Spain. […]
# [15] = tested on: D. magna; design: method as in FASS 2018; conditions: OECD 202; ref FASS 2018; cited from earlier work
# [16] = tested on: Cyprinus carpio; design: method as in FASS 2018; conditions: OECD 203; ref FASS 2018; cited from earlier work
# [17] = design: method as in FASS 2018; conditions: OECD 209; ref FASS 2018; cited from earlier work
smiles,measurement,setting,value
"COc1c(C)c2c(c(O)c1C/C=C(\C)CCC(=O)OCCN1CCOCC1)C(=O)OC2 [MPM, mycophenolate mofetil]",time to full primary degradation,[1],≤ 7 days
same,inhibition of activated sludge activity,[2]; nominal 100 mg MPM/L,no inhibition
same,ready biodegradability result,[2]; nominal 100 mg/L,primary degradation by HPLC without oxygen uptake
same,first ADE (selected as the ADE),[3]; from rat 12‐mo NOAEL,0.1 mg MPM/60‐kg person/d
same,second ADE,[3]; from rat teratogenicity NOEL,0.19 mg MPM/60‐kg person/d
same,clastogenicity,"[4]; extended exposure, only at highly cytotoxic dose levels",possesses a clastogenic potential
same,point mutations or primary DNA damage,[4]; presence or absence of metabolic activation,did not induce point mutations or primary DNA damage
same,carcinogenicity,[5],not carcinogenic
same,carcinogenicity,[6],not carcinogenic
same,no‐observed‐effect level (NOEL) for teratogenic changes,[7],2 mg/kg body weight/d
same,no‐observed‐effect level (NOEL) for teratogenic changes,[8],30 mg/kg body weight/d
same,in vitro antitumour effects,[9],in vitro antitumour effects
same,survival times,[10],prolonged survival times
same,hydrolysis of prodrug,[11],rapidly and fully hydrolyzed to MPA
same,no‐observed‐adverse‐effect level (NOAEL),[12],2 mg/kg body weight/d
same,dose causing malformations in the pups in the absence of maternal toxicity,"[13]; highest dose, oral, rats, ref T. Pfister, unpublished data",4.5 mg/kg body weight/d
same,"NOAEL, female fertility and reproduction study","[13]; rat, in vivo, po",1.5 mg/kg body weight/d
same,effect on fertility,"[13]; rats, oral, ref T. Pfister, unpublished data",no effect on fertility
"COc1c(C)c2c(c(O)c1C/C=C(\C)CCC(=O)O)C(=O)OC2 [^14C‐MPA, Mycophenolic acid, [carboxyl‐14C]]",degradation in activated sludge,[14],> 80%
COc1c(C)c2c(c(O)c1C/C=C(\C)CCC(=O)[O-])C(=O)OC2.[Na+] [sodium‐MPA],acute daphnid EC50,[15],> 100 mg/L
same,acute fish 50% lethal concentration (LC50),[16],> 100 mg/L
same,"3‐h EC50, respiration inhibition",[17],2213 mg/L
same,"EC10, respiration inhibition",[17],69 mg/L

# — publication PMC6856805, “Environmental Risk Assessment for the Active Pharmaceutical Ingredient Mycophenolic Acid in European Surface Waters” (Environmental Toxicology and Chemistry, 2019)
